Experimental data from patent US20260184708A1, “PYRIDAZINONES AND METHODS OF USE THEREOF” (GFB (ABC), LLC, priority 2017, published 2026).
Like-named read-outs stand apart in the source and are kept apart here.

Biological target: T1, TRPC5 (Homo sapiens, UniProt Q9UL62)
T1 construct: expressed in transfected cells; host or cells: HEK 293
T1 sequence (Q9UL62 1-973): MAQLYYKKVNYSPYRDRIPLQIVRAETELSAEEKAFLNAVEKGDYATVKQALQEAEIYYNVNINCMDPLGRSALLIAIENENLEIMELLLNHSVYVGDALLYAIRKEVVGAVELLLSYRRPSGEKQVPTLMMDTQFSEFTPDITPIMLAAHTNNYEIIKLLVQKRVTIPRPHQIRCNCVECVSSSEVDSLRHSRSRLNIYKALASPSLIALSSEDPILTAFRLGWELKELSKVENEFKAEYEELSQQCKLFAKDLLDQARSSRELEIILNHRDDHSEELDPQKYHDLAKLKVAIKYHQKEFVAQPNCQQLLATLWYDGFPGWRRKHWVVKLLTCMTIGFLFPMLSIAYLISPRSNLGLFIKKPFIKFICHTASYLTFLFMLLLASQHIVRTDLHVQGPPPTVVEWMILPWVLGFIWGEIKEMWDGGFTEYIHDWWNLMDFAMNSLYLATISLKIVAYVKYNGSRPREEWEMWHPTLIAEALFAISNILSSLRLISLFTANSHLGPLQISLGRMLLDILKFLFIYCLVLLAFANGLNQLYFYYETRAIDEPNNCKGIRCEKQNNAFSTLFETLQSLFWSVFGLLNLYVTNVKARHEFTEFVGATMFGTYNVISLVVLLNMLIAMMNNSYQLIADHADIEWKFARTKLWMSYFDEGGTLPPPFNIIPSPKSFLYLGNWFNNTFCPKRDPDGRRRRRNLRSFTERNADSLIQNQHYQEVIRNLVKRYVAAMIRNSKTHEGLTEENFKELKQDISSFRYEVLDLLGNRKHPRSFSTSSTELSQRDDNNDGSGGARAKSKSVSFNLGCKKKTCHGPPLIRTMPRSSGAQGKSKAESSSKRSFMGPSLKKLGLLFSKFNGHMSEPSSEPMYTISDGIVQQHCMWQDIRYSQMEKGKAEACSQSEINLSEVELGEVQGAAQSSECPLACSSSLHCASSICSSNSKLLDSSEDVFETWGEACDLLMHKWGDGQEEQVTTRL
Test: TRPC5 automated patch clamp assay (Qpatch), current block after rosiglitazone stimulation
Type: cell-based
Procedure: HEK 293 cells expressing human TRPC5 were harvested, re-suspended in serum free medium, and added to the automated platform and used within 2-3 hours. Internal and external physiological solutions were freshly prepared prior to the assay. The external solution contained: 145 mM NaCl, 4 mM KCl, 2 mM CaCl2), 1 mM MgCl2, 10 mM HEPES, 10 mM glucose, pH 7.4 with NaOH and 300 mOsm/L. The internal solution contained 120 mM L-aspartic acid, 120 mM CsOH·H2O, 20 mM CsCl, 2 mM MgCl2, 8.8 mM CaCl2), 10 mM EGTA, 10 mM HEPES, 10 mM Glucose, 0.1 mM GTP and 2 mM Na2ATP; pH 7.2 with CsOH and 290 mOsm/L. The free internal Ca2+ concentration was buffered to 1 μM.
The automated electrophysiological platform QPatch 16 from Sophion (Denmark) was used to carry out the compounds profiling. The series resistance and quality of seals were continuously monitored during the experiments. Data was analyzed using Sophion QPatch assay software 5.6 (Odense). IC50 values were calculated using a least squares regression algorithm (Hill equation).
To monitor the ion currents, a voltage ramp from −100 mV to +100 mV, over 300 ms, was applied every 10 seconds, from a holding potential of −60 mV.
After recording for a minimum of 60 seconds control period, Rosiglitazone (30 uM), was applied to activate the channel.

[1] = Table 3, HEK293 cells overexpressing TRPC5, rosiglitazone stimulation, 80 mV, read-out: TRPC5_QP_ XC50_80
[2] = Table 3, HEK293 cells overexpressing TRPC5, rosiglitazone stimulation, 100 mV, read-out: TRPC5_QP_ XC50_100

Row | IC50 [1] [µM] | IC50 [2] [µM] | IC50 (Table 4, HEK293 cells overexpressing TRPC5, rosiglitazone stimulation, 80 mV, read-out: TRPC5_QP_ XC50_80) [µM] | IC50 (Table 4, HEK293 cells overexpressing TRPC5, rosiglitazone stimulation, 100 mV, read-out: TRPC5_QP_ XC50_100) [µM] | Compound | IC50 [µM]
1 | 10 to 500 | 10 to 500 | – | – | O=c1[nH]ncc(N2CCN(CC(F)(F)F)CC2)c1Br | –
2 | 1 to 5 | 1 to 5 | – | – | O=c1[nH]ncc(N2CCN(Cc3cccc(C(F)(F)F)c3)CC2)c1Cl | –
3 | 1 to 5 | 1 to 5 | – | – | O=c1[nH]ncc(N2CCN(Cc3ccccc3OC(F)(F)F)CC2)c1Br | –
4 | 1 to 5 | 1 to 5 | – | – | Cc1ccccc1CN1CCN(c2cn[nH]c(=O)c2Cl)CC1 | –
5 | 1 to 5 | 1 to 5 | – | – | O=c1[nH]ncc(N2CCN(Cc3ccccc3OC(F)(F)F)CC2)c1Cl | –
6 | 5 to 10 | 5 to 10 | – | – | Cc1ccccc1CN1CCN(c2cn[nH]c(=O)c2-c2ccccc2)CC1 | –
7 | 10 to 500 | 10 to 500 | – | – | Cc1ccccc1CN1CCN(c2cn[nH]c(=O)c2C#CC(C)C)CC1=O | –
8 | 10 to 500 | 10 to 500 | – | – | Cc1ccccc1CN1CCN(c2cn[nH]c(=O)c2C#CC2CC2)CC1=O | –
9 | 1 to 5 | 1 to 5 | – | – | O=C1CN(c2cn[nH]c(=O)c2Br)CCN1CC1CCCCC1 | –
10 | 5 to 10 | 5 to 10 | – | – | Cc1ccccc1CN1CCN(c2cn[nH]c(=O)c2OC2CCCC2)CC1=O | –
11 | 1e-05 to 1 | 1 to 5 | – | – | Cc1cc(F)ccc1CN1CCN(c2cn[nH]c(=O)c2Br)CC1=O | –
12 | 10 to 500 | 10 to 500 | – | – | COc1c(N2CCN(Cc3ccccc3C)C(=O)C2)cn[nH]c1=O | –
13 | 1 to 5 | 1 to 5 | – | – | O=C1CN(c2cn[nH]c(=O)c2Br)CCN1Cc1ccc(F)cc1F | –
14 | 10 to 500 | 10 to 500 | – | – | Cc1ccccc1CN1CCN(c2cn[nH]c(=O)c2-c2ccccc2)CC1=O | –
15 | 5 to 10 | 5 to 10 | – | – | Cc1ccccc1CN1CCN(c2cn[nH]c(=O)c2C)CC1=O | –
16 | 10 to 500 | 10 to 500 | – | – | Cc1ccccc1CN1CCN(c2cn[nH]c(=O)c2-c2ccccn2)CC1=O | –

Row | IC50 [1] [µM] | IC50 [2] [µM] | IC50 (Table 4, HEK293 cells overexpressing TRPC5, rosiglitazone stimulation, 80 mV, read-out: TRPC5_QP_ XC50_80) [µM] | IC50 (Table 4, HEK293 cells overexpressing TRPC5, rosiglitazone stimulation, 100 mV, read-out: TRPC5_QP_ XC50_100) [µM] | Compound | IC50 [µM]
17 | 10 to 500 | 10 to 500 | – | – | CCS(=O)(=O)c1c(N2CCN(Cc3ccccc3C)C(=O)C2)cn[nH]c1=O | –
18 | 5 to 10 | 10 to 500 | – | – | O=c1[nH]ncc(N2CCN(Cc3ccc(Cl)cc3F)CC2)c1Cl | –
19 | 5 to 10 | 5 to 10 | – | – | O=C1CN(c2cn[nH]c(=O)c2Cl)CCN1Cc1ccc(Cl)cc1F | –
20 | 10 to 500 | 10 to 500 | – | – | Cc1ccccc1CN1CCN(c2cn[nH]c(=O)c2C2=CCOCC2)CC1=O | –
21 | 1e-05 to 1 | 1e-05 to 1 | – | – | O=C1CN(c2cn[nH]c(=O)c2Cl)CCN1Cc1ccccc1C(F)(F)F | –
22 | 10 to 500 | 10 to 500 | – | – | Cc1ccccc1CN1CCN(c2cn[nH]c(=O)c2N2CCOCC2)CC1=O | –
23 | 1 to 5 | 5 to 10 | – | – | O=c1[nH]ncc(N2CCN(Cc3ccc(F)cc3Cl)CC2)c1Cl | –
24 | 1 to 5 | 1 to 5 | – | – | Cc1cc(F)ccc1CN1CCN(c2c(Cl)cn[nH]c2=O)CC1 | –
25 | 1 to 5 | 5 to 10 | – | – | Cc1ccccc1CN1CCN(c2cn[nH]c(=O)c2C(F)(F)F)CC1=O | –
26 | 5 to 10 | 5 to 10 | – | – | O=c1[nH]ncc(N2CCN(Cc3ccc(F)cc3F)CC2)c1Cl | –
27 | 10 to 500 | 10 to 500 | – | – | O=c1[nH]ncc(N2CCN(Cc3ccc(C(F)(F)F)cc3)CC2)c1Cl | –
28 | 1 to 5 | 1 to 5 | – | – | O=c1[nH]ncc(N2CCN(Cc3c(F)cccc3F)CC2)c1Cl | –
29 | 1 to 5 | 1 to 5 | – | – | O=C1CN(c2cn[nH]c(=O)c2Cl)CCN1Cc1c(F)cccc1F | –
30 | – | – | 1 to 5 | 1 to 5 | Cc1ccccc1CN1CCN(c2cn[nH]c(=O)c2C2CC2)CC1=O | –
31 | – | – | – | – | O=c1[nH]ncc(N2CCc3c(ncn3Cc3cccc(C(F)(F)F)c3)C2)c1Cl | 1 to 5

Row | Compound | IC50 [1] [µM] | IC50 [2] [µM] | IC50 (Table 4, HEK293 cells overexpressing TRPC5, rosiglitazone stimulation, 80 mV, read-out: TRPC5_QP_ XC50_80) [µM] | IC50 (Table 4, HEK293 cells overexpressing TRPC5, rosiglitazone stimulation, 100 mV, read-out: TRPC5_QP_ XC50_100) [µM] | IC50 [µM]
32 | Cc1ccccc1CN1CCC2(C1)CN(c1cn[nH]c(=O)c1Br)C2 | 10 to 500 | 10 to 500 | – | – | –
33 | Cc1ccccc1CN1CC2(CCN(c3cn[nH]c(=O)c3Br)C2)C1 | 10 to 500 | 10 to 500 | – | – | –
